Experimental data taken from patent US20240165062A1, “COMPOSITION FOR INCREASING MUSCLE” (YUKI GOSEI KOGYO CO., LTD., priority 2022, published 2024).

Experiments:
[1] = system: MyHCI gene in C2C12 cells; conditions: β-alanine added twice at 24 h interval, vs 1×PBS control, FIG. 1
Experimental: (§1) In this example, β-alanine was added to C2C12 cells and the expression of MyHCI (slow muscle marker), MyHCIIa (fast muscle marker), MyHCIIb (fast muscle marker), and MyHCIIx (fast muscle marker) genes were examined.
(§2) High Pure RNA Isolation Kit (Roche, Basel, Switzerland) was used for total RNA preparation. C2C12 cells were seeded at a concentration of 5.0×10^4 cells/mL in 5 mL Dish. After 24 hours of incubation, β-alanine was added. 1×PBS was added to the control cells at the same volume as the added amount of β-alanine. Twenty-four hours after the addition of 3-alanine, sample was secondary added. After 24 hours of incubation, the culture supernatant was aspirated off. After washing the cells twice with 1×PBS, 1×PBS 200 μL/dish and […] of Lysis/-binding buffer included in High Pure RNA Isolation Kit were added to the entire dish, and the total amount was collected in a 1.5-mL tube. The collected samples were suspended using a vortex mixer for 60 seconds. The filter tube and the collection tube in the kit were assembled, the sample solution was added to the filter tube, and centrifuged at 4° C., 9200×g for 15 seconds. The liquid drained into the collection tube was discarded, and the filter tube and collection tube were assembled again. In a 1.5-mL tube, 90 μL of DNase Incubation Buffer per sample and 10 μL of DNase I per sample were mixed. The mixture was added to the filter tubes and incubated at room temperature for 15 minutes. After incubation, Wash buffer I (500 μL) was added to the filter tubes and centrifuged at 4° C., 9200×g for 15 seconds.

[2] = system: MyHCIIa gene in C2C12 cells; conditions: β-alanine added twice at 24 h interval, vs 1×PBS control, FIG. 1
Experimental: as §1, §2

[3] = system: MyHCIIb gene in C2C12 cells; conditions: β-alanine added twice at 24 h interval, vs 1×PBS control, FIG. 1
Experimental: as §1, §2

[4] = system: MyHCIIx gene in C2C12 cells; conditions: β-alanine added twice at 24 h interval, vs 1×PBS control, FIG. 1
Experimental: as §1, §2

[5] = system: MyHCI gene in C2C12 cells; conditions: differentiated C2C12 cells, β-alanine 0.5 mM, 1 mM and 10 mM for 2 days, FIG. 4
Experimental: (§3) FIG. 4 is graphs showing the mRNA expressions of MyHCI (slow muscle)(A), MyHCIIa (fast muscle)(B), MyHCIIx (fast muscle)(C), and MyHCIIb (fast muscle) (D) measured by RT-qPCR in the C2C12 cells wherein the differentiated C2C12 cells were then treated by addition of 0.5, 1, or 10 (mM) of β-alanine for 2 days.
as §1
(§4) C2C12 cells were seeded in 6-well plates at a concentration of 2.0×10^5 cells/mL, and after 48 hours the medium was replaced with DMEM medium containing 2% Horse Serum (HS) (Thermo Fisher Scientific) to induce differentiation. Further, after 24 hours, the medium was replaced with DMEM medium containing 2% HS. The medium was changed every 2 days thereafter, and further the medium changes and the additions of β-alanine (0.5 mM, 1 mM, or 10 mM) were conducted on the 8th and 9th day after seeding. The cells on 10th day after seeding were used for the experiments. For controls, 1×PBS was added at the same volume as the amount of β-alanine.
(§5) Total RNA preparation and RT-qPCR were performed according to Example 1.

[6] = system: MyHCIIa gene in C2C12 cells; conditions: differentiated C2C12 cells, β-alanine 0.5 mM, 1 mM and 10 mM for 2 days, FIG. 4
Experimental: as §3, §1, §4, §5

[7] = system: MyHCIIb gene in C2C12 cells; conditions: differentiated C2C12 cells, β-alanine 1 mM and 10 mM for 2 days, FIG. 4
Experimental: as §3, §1, §4, §5

[8] = system: MyHCIIx gene in C2C12 cells; conditions: differentiated C2C12 cells, β-alanine 1 mM and 10 mM for 2 days, FIG. 4
Experimental: as §3, §1, §4, §5

MyoD gene in C2C12 cells = conditions: vs 1×PBS control, FIG. 2
C2C12 cells = conditions: β-alanine 0.5 mM or 1.0 mM every 2 days, 9 days from induction of differentiation, FIG. 3

SMILES: NCCC(=O)O [β-alanine]
- expression of the slow muscle marker MyHCI [1]: increased
- expression of the fast muscle marker MyHCIIa [2]: increased
- expression of the fast muscle marker MyHCIIb [3]: increased
- expression of the fast muscle marker MyHCIIx [4]: increased
- MyHCI (slow muscle marker) mRNA expression [5]: significantly increased
- MyHCIIa (fast muscle marker) gene expression [6]: concentration-dependent enhancement
- MyHCIIb (fast muscle) mRNA expression [7]: significantly increased
- MyHCIIx (fast muscle) mRNA expression [8]: significantly increased
- expression of MyoD, a transcriptional regulator of muscle differentiation (MyoD gene in C2C12 cells): increased
- differentiation of myoblasts into myotube cells (C2C12 cells): promoted
- number of myotubular cells (C2C12 cells): increased
- ratio of slow muscle cells (slow muscle area / myotube area) (C2C12 cells): increased as the amount of β-alanine increased
